Source: patent US8674061B2, “Multiligand constructs” (priority 2008, dated 2014)

What was measured:
Type in all cases: binding
Details in all cases: relative to 6′SLN = 1, KD based on concentration of sialic acid residues, averaged
[1] = test system: influenza virus A/Nib/26/90M (H3N2)
[2] = test system: influenza virus A/Nib/23/89M-MA (H1N1)
[3] = test system: influenza virus B/Nib/48/90M

Neu5Acα2-6Galβ1-4GlcNAcβ-O— [6′SLN, reference compound]
1: Relative inhibitory activity of tetraligand constructs [1] | Relative inhibitory activity of triligand constructs [1] | Relative inhibitory activity of tetraligand constructs [2] | Relative inhibitory activity of triligand constructs [2] | Relative inhibitory activity of tetraligand constructs [3] | Relative inhibitory activity of triligand constructs [3]
